Measured values from the NIST ThermoML archive (doi:10.1021/acs.jced.9b00021).

Assay: wn = mass fraction of the nth substance listed
Details: 400 kPa, Liquid, Concentric cylinders viscometry

CN(CCO)CCO [N-methyldiethanolamine] + O
viscosity [mPa·s]
Details | w1 = 0.3 | w1 = 0.4 | w1 = 0.5 | w1 = 0.6 | w1 = 0.7 | w1 = 0.8 | w1 = 0.9 | w1 = 0.95 | w1 = 1
298.15 K | 3.02 | 5.21 | 9.13 | 16.91 | 30.09 | 53.42 | 75.12 | 76.07 | 73.1
303.15 K | 2.64 | 4.41 | 7.51 | 13.4 | 23.11 | 40.03 | 56.05 | 57.55 | 55.89
308.15 K | 2.28 | 3.71 | 6.17 | 10.73 | 18.01 | 30.42 | 42.37 | 44.18 | 43.45
313.15 K | 1.97 | 3.15 | 5.13 | 8.68 | 14.22 | 23.47 | 32.56 | 34.3 | 34.15
318.15 K | 1.75 | 2.73 | 4.34 | 7.15 | 11.42 | 18.44 | 25.45 | 27.04 | 27.15
323.15 K | 1.54 | 2.36 | 3.68 | 5.92 | 9.26 | 14.67 | 20.13 | 21.55 | 21.82
328.15 K | 1.38 | 2.07 | 3.18 | 4.99 | 7.64 | 11.84 | 16.18 | 17.38 | 17.79
333.15 K | 1.24 | 1.83 | 2.76 | 4.23 | 6.36 | 9.67 | 13.16 | 14.14 | 14.63
338.15 K | 1.15 | 1.65 | 2.43 | 3.66 | 5.38 | 8.02 | 10.81 | 11.64 | 12.2
343.15 K | 1.06 | 1.49 | 2.16 | 3.18 | 4.59 | 6.71 | 8.98 | 9.66 | 10.21
348.15 K | 0.97 | 1.35 | 1.92 | 2.77 | 3.94 | 5.66 | 7.52 | 8.09 | 8.6
353.15 K | 0.89 | 1.22 | 1.72 | 2.43 | 3.41 | 4.81 | 6.35 | 6.82 | 7.31
358.15 K | 0.84 | 1.13 | 1.58 | 2.18 | 3 | 4.16 | 5.44 | 5.83 | 6.29
363.15 K | 0.81 | 1.05 | 1.45 | 1.97 | 2.65 | 3.63 | 4.69 | 5.01 | 5.43
368.15 K | 0.79 | 0.97 | 1.33 | 1.77 | 2.37 | 3.18 | 4.09 | 4.33 | 4.72
373.15 K | 0.76 | 0.91 | 1.23 | 1.61 | 2.12 | 2.82 | 3.58 | 3.77 | 4.12
